What was measured:
Assay in all cases: relative viability (nuclei count vs DMSO), 5 days (fraction); higher = more cells survive
GW-2580 + OSI-027 = compound: COC1=CC=C(C=C1)COC2=C(C=C(C=C2)CC3=CN=C(N=C3N)N)OC [GW-2580] + COc1cccc2cc(-c3nc([C@H]4CC[C@H](C(=O)O)CC4)n4ncnc(N)c34)[nH]c12 [OSI-027] (partner 0.5 µM)
Procedure, shortened: (§1)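 Lung cancer cell lines in 1536-well plates got either a single drug or a fixed anchor-drug dose together with five library-drug doses (not always all listed) in √10 steps, by pin tool, on the day after seeding. Nuclei were counted after 5 days, and relative viability is the treated-to-vehicle ratio of nuclei counts. Values are medians of duplicate plates.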

GW-2580 + Decitabine = compound: COC1=CC=C(C=C1)COC2=C(C=C(C=C2)CC3=CN=C(N=C3N)N)OC [GW-2580] + Nc1ncn([C@H]2C[C@H](O)[C@@H](CO)O2)c(=O)n1 [Decitabine] (partner 2 µM)
Procedure, shortened: as §1

Fedratinib + OSI-027 = compound: Cc1cnc(Nc2ccc(OCCN3CCCC3)cc2)nc1Nc1cccc(S(=O)(=O)NC(C)(C)C)c1 [Fedratinib] + COc1cccc2cc(-c3nc([C@H]4CC[C@H](C(=O)O)CC4)n4ncnc(N)c34)[nH]c12 [OSI-027] (partner 0.5 µM)
Procedure, shortened: as §1

Fedratinib + Crizotinib = compound: Cc1cnc(Nc2ccc(OCCN3CCCC3)cc2)nc1Nc1cccc(S(=O)(=O)NC(C)(C)C)c1 [Fedratinib] + C[C@@H](Oc1cc(-c2cnn(C3CCNCC3)c2)cnc1N)c1c(Cl)ccc(F)c1Cl [Crizotinib] (partner 1 µM)
Procedure, shortened: as §1

Fedratinib + Pemetrexed = compound: Cc1cnc(Nc2ccc(OCCN3CCCC3)cc2)nc1Nc1cccc(S(=O)(=O)NC(C)(C)C)c1 [Fedratinib] + Nc1nc2[nH]cc(CCc3ccc(C(=O)N[C@@H](CCC(=O)O)C(=O)O)cc3)c2c(=O)[nH]1 [Pemetrexed] (partner 0.2 µM)
Procedure, shortened: as §1

Fedratinib + Olaparib = compound: Cc1cnc(Nc2ccc(OCCN3CCCC3)cc2)nc1Nc1cccc(S(=O)(=O)NC(C)(C)C)c1 [Fedratinib] + O=C(c1cc(Cc2n[nH]c(=O)c3ccccc23)ccc1F)N1CCN(C(=O)C2CC2)CC1 [Olaparib] (partner 8 µM)
Procedure, shortened: as §1

Cell Line | relative viability (GW-2580 + OSI-027; first compound 0.08 µM) | relative viability (GW-2580 + OSI-027; first compound 0.8 µM) | relative viability (GW-2580 + OSI-027; first compound 2.53 µM) | relative viability (GW-2580 + OSI-027; first compound 8 µM) | relative viability (GW-2580 + Decitabine; first compound 0.08 µM) | relative viability (GW-2580 + Decitabine; first compound 0.8 µM) | relative viability (GW-2580 + Decitabine; first compound 2.53 µM) | relative viability (GW-2580 + Decitabine; first compound 8 µM) | relative viability (Fedratinib + OSI-027; first compound 0.1 µM) | relative viability (Fedratinib + OSI-027; first compound 0.3162 µM) | relative viability (Fedratinib + OSI-027; first compound 1 µM) | relative viability (Fedratinib + Crizotinib; first compound 0.1 µM) | relative viability (Fedratinib + Crizotinib; first compound 0.3162 µM) | relative viability (Fedratinib + Crizotinib; first compound 1 µM) | relative viability (Fedratinib + Pemetrexed; first compound 0.1 µM) | relative viability (Fedratinib + Pemetrexed; first compound 0.3162 µM) | relative viability (Fedratinib + Pemetrexed; first compound 1 µM) | relative viability (Fedratinib + Olaparib; first compound 0.1 µM) | relative viability (Fedratinib + Olaparib; first compound 0.3162 µM) | relative viability (Fedratinib + Olaparib; first compound 1 µM)
COR-L23 | 1.01 | 0.994 | 0.655 | 0.753 | 0.451 | 0.462 | 0.448 | 0.432 | 0.741 | 0.714 | 0.596 | 0.55 | 0.526 | 0.486 | 0.177 | 0.218 | 0.184 | 0.326 | 0.381 | 0.302
NCI-H2087 | 0.681 | 0.675 | 0.564 | 0.588 | 0.276 | 0.267 | 0.237 | 0.276 | 0.486 | 0.453 | 0.425 | 0.735 | 0.879 | 0.831 | 0.739 | 0.651 | 0.731 | 0.534 | 0.49 | 0.425
LC-2-ad | 0.88 | 0.867 | 0.87 | 0.78 | 0.82 | 0.913 | 0.833 | 0.815 | 0.854 | 0.94 | 0.609 | 0.474 | 0.444 | 0.446 | 0.284 | 0.267 | 0.277 | 0.709 | 0.701 | 0.724
NCI-H1915 | 0.638 | 0.649 | 0.626 | 0.598 | 0.248 | 0.272 | 0.575 | 0.251 | 0.612 | 0.67 | 0.319 | 0.942 | 0.866 | 0.777 | 0.599 | 0.464 | 0.425 | 0.262 | 0.227 | 0.222
NCI-H2023 | 0.512 | 0.459 | 0.39 | 0.393 | 0.22 | 0.239 | 0.222 | 0.296 | 0.393 | 0.394 | 0.328 | 0.585 | 0.715 | 0.58 | 0.272 | 0.254 | 0.158 | 0.533 | 0.488 | 0.44
COR-L 105 | 0.662 | 0.807 | 0.713 | 0.676 | 0.755 | 0.739 | 0.675 | 0.558 | 0.633 | 0.649 | 0.497 | 0.539 | 0.686 | 0.391 | 0.96 | 1.1 | 0.827 | 0.669 | 0.693 | 0.708
RERF-LC-KJ | 0.584 | 0.606 | 0.501 | 0.484 | 0.687 | 0.799 | 0.673 | 0.658 | 0.533 | 0.602 | 0.48 | 0.834 | 0.883 | 0.786 | 0.454 | 0.463 | 0.502 | 0.895 | 0.847 | 0.805

— the supplement of paper PMC10307832
